Test results from EP3449978A1, “INHIBITORS OF ARYL HYDROCARBON RECEPTOR FOR TREATING SOFT-TISSUE SARCOMA AND PREVENTING NEUROFIBROMA GROWTH AND/OR TRANSFORMATION TO MALIGNANT PERIPHERAL NERVE SHEATH TUMORS” (UNIVERSITE PARIS DESCARTES, priority 2017, dated 2019).

Legend:
Assay type in all cases: cell-based, human
[1] = tested on: AhR; experiment: Quantitative RT-PCR of AhR pathway genes in STS26T cells; conditions: TMF 10µM, CH-223191 50µM, versus DMSO (Fig. 2C)
Protocol: • Figure 1: AHR signaling pathway is activated in Dermal and Plexiform Neurofibromas, and MPNST. • A, Total RNA was isolated from patients having Dermal Neurofibromas (n=8), Plexiform Neurofibromas (n=16) and […]=14). RT-qPCR were performed using primers recognizing specifically the genes indicated. […] Kruskal Wallis H test was used to compare MPNST vs Plexiform Neurofibromas vs Dermal Neurofibromas. • B and B', Representative immunohistochemical study of AhR in a case of MPNST. Formalin fixed, paraffin embedded MPNST samples were stained with Hematoxylin-eosin-saffron (HES) and antibody recognizing AhR has been used to detect AhR. A strong nuclear AhR staining is detected in a proportion of tumor cells while intra-tumoral vessels (arrows) whereas fibroblasts in a fibrous septa (*) taken as internal negative controls are not stained. • Figure 2: AhR inhibition induced death of MPNST cell lines (ST[…]) by apoptosis. • A, ST[…] cell line was reverse transfected with either non-transfected (NT) or siRNA (10 nM). The total RNA was then extracted from these cells. Quantitative real-time PCR experiments were performed using primers recognizing AhR, AHRR, ARNT, CYP1A1 and CYP1 B1. *p<0.05, by non-parametric Student's t-test. • B, Flow cytometry has been conducted to determine the percentage of cell population of living cells, apoptotic cells, late apoptosis and dead. […]

[2] = tested on: STS26T cells; experiment: Annexin V / PI flow cytometry in STS26T cells
Protocol: • Figure 1: AHR signaling pathway is activated in Dermal and Plexiform Neurofibromas, and MPNST. • A, Total RNA was isolated from patients having Dermal Neurofibromas (n=8), Plexiform Neurofibromas (n=16) and MPNST (n=14). RT-qPCR were performed using primers recognizing specifically the genes indicated. Table indicates median [range] mRNA levels. mRNA levels were normalized such that the median value of the dermal neurofibromas was 1. Kruskal Wallis H test was used to compare MPNST vs Plexiform Neurofibromas vs Dermal Neurofibromas. • B and B', Representative immunohistochemical study of AhR in a case of MPNST. Formalin fixed, paraffin embedded MPNST samples were stained with Hematoxylin-eosin-saffron (HES) and antibody recognizing AhR has been used to detect AhR. A strong nuclear AhR staining is detected in a proportion of tumor cells while intra-tumoral vessels (arrows) whereas fibroblasts in a fibrous septa (*) taken as internal negative controls are not stained. • Figure 2: AhR inhibition induced death of MPNST cell lines (STS26T) by apoptosis. • A, STS26T cell line was reverse transfected with either non-transfected (NT) or siRNA (10 nM). The total RNA was then extracted from these cells. Quantitative real-time PCR experiments were performed using primers recognizing AhR, AHRR, ARNT, CYP1A1 and CYP1 B1. *p<0.05, by non-parametric Student's t-test. • B, Flow cytometry has been conducted to determine the percentage of cell population of living cells, apoptotic cells, late apoptosis and dead. After 72h of medium change, cells are stained with Annexin and PI to detect the apoptosis and necrosis. Results represent the means +/- SEM of at least four independent experiments. *p<0.05, by non-parametric Student's t-test. • C, Total RNA was extracted from MPNST cell line STS26T treated either with TMF (10µM) and CH-223191 (50µM) or DMSO. Quantitative real-time PCR experiments were performed using primers recognizing CYP1A1, IL1β. The RT-PCR was normalized using TBP mRNA. Data represent the mean +/- SEM of at least 3 independent experiments. *p<0.05, by Student's t-test. • D, Human STS26T cell line was treated with either AHR antagonists CH-223191 (10µM and 50µM) or TMF (10µM) or DMSO. After 48h/72h of medium change, cells are stained with Annexin V and Propidium Iodide (PI) to detect apoptosis and necrosis. Flow cytometry has been conducted to determine the percentage of cell population of living cells (Annexin V-/PI-), apoptotic cells state (Annexin V+/PI-), late apoptosis state cells (Annexin V+/PI+) and dead cells (Annexin V-/PI+). […] Quantitative real-time PCR experiments were performed using primers recognizing CYP1A1 and CYP1 B1. *p<0.05, **p<0.01, ***p<0.001 by students t-test. • B, Human MPNST cell line (90-8) was incubated with AhR antagonist CH-223191 (1, 5, 10, 50 and 100 µM) during 48h and 72h. Cell viability was analyzed using WST1 assay. **p<.01, by Bonferroni's post hoc tests after two-way ANOVA when compared with DMSO. • C - D, Percentage of cell population of apoptotic (Annexin V+/PI-), dead (Annexin V-/PI+), necrotic (Annexin V+/PI+) and living (Annexin V-/PI-) cells were analyzed using flow cytometry. […] Quantitative real-time PCR experiments were performed using primers recognizing PUMA, GADD45 and IL1β. […]

[3] = tested on: 90-8 cells; experiment: In vitro cytotoxicity assay (WST1 assay) in 90-8 cells; conditions: 50 µM, WST1 assay (Fig. 3B)
Protocol: 90-8 cells were seeded in triplicate on 96-well plates. Cells were treated with either CH-223191 or 0.1% DMSO. Cytotoxicity was quantified 48 and 72 hours after treatment using WST1 assay (Roche). Relative cytotoxicity was determined as ratio of absorbance at 450 nm of cells treated with CH-223191 versus cells treated with DMSO. IC50 values corresponding to concentrations associated to 50% of cell viability after 72 hours of continuous exposure were determined.

[4] = tested on: 90-8 cells; experiment: Annexin V / PI flow cytometry in 90-8 cells; conditions: 50µM, 48h and 72h, Annexin V and PI staining (Fig. 3C, 3D)
Protocol: • Figure 1: AHR signaling pathway is activated in Dermal and Plexiform Neurofibromas, and MPNST. • A, Total RNA was isolated from patients having Dermal Neurofibromas (n=8), Plexiform Neurofibromas (n=16) and MPNST (n=14). RT-qPCR were performed using primers recognizing specifically the genes indicated. Table indicates median [range] mRNA levels. mRNA levels were normalized such that the median value of the dermal neurofibromas was 1. Kruskal Wallis H test was used to compare MPNST vs Plexiform Neurofibromas vs Dermal Neurofibromas. • B and B', Representative immunohistochemical study of AhR in a case of MPNST. […] A strong nuclear AhR staining is detected in a proportion of tumor cells while intra-tumoral vessels (arrows) whereas fibroblasts in a fibrous septa (*) taken as internal negative controls are not stained. • Figure 2: AhR inhibition induced death of MPNST cell lines (STS26T) by apoptosis. • A, STS26T cell line was reverse transfected with either non-transfected (NT) or siRNA (10 nM). […] Quantitative real-time PCR experiments were performed using primers recognizing AhR, AHRR, ARNT, CYP1A1 and CYP1 B1. *p<0.05, by non-parametric Student's t-test. • B, Flow cytometry has been conducted to determine the percentage of cell population of living cells, apoptotic cells, late apoptosis and dead. […]

[5] = tested on: AhR; experiment: Quantitative RT-PCR of AhR target and cell death genes in 90-8 cells
Protocol: RT-qPCR were performed using primers recognizing specifically the genes indicated. […] The total RNA was then extracted from these cells. […] Quantitative real-time PCR experiments were performed using primers recognizing CYP1A1 and CYP1 B1. *p<0.05, **p<0.01, ***p<0.001 by students t-test. • B, Human MPNST cell line (90-8) was incubated with AhR antagonist CH-223191 (1, 5, 10, 50 and 100 µM) during 48h and 72h. […] E, Total RNA was extracted from 90-8 cell line. Quantitative real-time PCR experiments were performed using primers recognizing PUMA, GADD45 and IL1β. The RT-PCR was normalized using 26S RNA. Data represent the mean+/-SEM of at least 3 independent experiments. *p<0.05, **p<0.01, **p<0.001, by Student's t test.

| Compound | expression of AhR target gene: CYP1A [1] | cell death, apoptosis and necrosis ([2]; STS26T, 50µM at 48h and 72h, Annexin V and PI staining (Fig. 2D)) | decreased 90-8 cell viability [3] [%] | number of dead cells, apoptosis and necrosis [4] | expression of IL1β ([5]; 90-8 cells (Fig. 3E)) | expression of PUMA and GADD45 genes ([5]; 90-8 cells (Fig. 3E)) | expression of the classical AhR target genes: CYP1A1 and CYP1B1 ([5]; 90-8 cells, 50 µM (Fig. 3A)) | effect on STS26T cell death ([2]; 10µM at 48h and 72h, compared with CH-223191) | cells necrotic ([2]; STS26T, 10µM, 72h) [%] | cells underwent apoptosis ([2]; STS26T, 10µM, 72h) [%] | decrease of cell viability ([2]; STS26T, 10µM, 72h) [%] |
| --- | --- | --- | --- | --- | --- | --- | --- | --- | --- | --- | --- |
| Cc1ccccc1N=Nc1ccc(NC(=O)c2ccnn2C)c(C)c1 [CH-223191] | inhibited | increased cell death and enhanced apoptosis and necrosis | 50 | increased the number of dead cells and enhanced apoptosis and necrosis | reduced | enhanced | inhibited |  |  |  |  |
| COc1ccc(-c2cc(=O)c3cc(OC)ccc3o2)c(OC)c1 [TMF, 6,2',4',-trimethoxyflavone] | inhibited |  |  |  |  |  |  | more potent effect than CH-223191 | 30 | 20 | 50 |
